Test results taken from PubChem BioAssay AID1963965 (Molecular Pharmacology Branch, DTP, NCI, 2024).

Tested on: 996289-038-R-J1-PDC spheroid viability
Assay: Anticancer human tumor 996289-038-R-J1-PDC patient-derived colon adenocarcinoma cell line growth inhibition [PI3K]
Settings: spheroids with HUVEC and MSC; for IC50: curve of first compound; for viability, T/C: stronger effect = lower value
How it was run: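 We assembled tumor spheroids that included a stromal compartment of HUVEC and MSCs, then exposed them to targeted agents alone and together with PI3K pathway inhibitors. Concentration series descended by half-log from clinically achievable Cmax levels. Viability served as the endpoint.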

[1] = second compound 0.0316 µM, first compound 0.0316 µM
[2] = second compound 0.0316 µM, first compound 0.1 µM
[3] = second compound 0.0316 µM, first compound 0.316 µM
[4] = second compound 0.0316 µM, first compound 1 µM
[5] = second compound 0.0316 µM, first compound 3.16 µM
[6] = second compound 0.0316 µM, first compound 10 µM
[7] = second compound 0.1 µM, first compound 0.0316 µM
[8] = second compound 0.1 µM, first compound 0.1 µM
[9] = second compound 0.1 µM, first compound 0.316 µM
[10] = second compound 0.1 µM, first compound 1 µM
[11] = second compound 0.1 µM, first compound 3.16 µM
[12] = second compound 0.1 µM, first compound 10 µM
[13] = second compound 0.316 µM, first compound 0.0316 µM
[14] = second compound 0.316 µM, first compound 0.1 µM
[15] = second compound 0.316 µM, first compound 0.316 µM
[16] = second compound 0.316 µM, first compound 1 µM
[17] = second compound 0.316 µM, first compound 3.16 µM
[18] = second compound 0.316 µM, first compound 10 µM
[19] = second compound 1 µM, first compound 0.0316 µM
[20] = second compound 1 µM, first compound 0.1 µM
[21] = second compound 1 µM, first compound 0.316 µM
[22] = second compound 1 µM, first compound 1 µM
[23] = second compound 1 µM, first compound 3.16 µM
[24] = second compound 1 µM, first compound 10 µM
[25] = second compound 3.16 µM, first compound 0.0316 µM
[26] = second compound 3.16 µM, first compound 0.1 µM
[27] = second compound 3.16 µM, first compound 0.316 µM
[28] = second compound 3.16 µM, first compound 1 µM
[29] = second compound 3.16 µM, first compound 3.16 µM
[30] = second compound 3.16 µM, first compound 10 µM
[31] = second compound 10 µM, first compound 0.0316 µM
[32] = second compound 10 µM, first compound 0.1 µM
[33] = second compound 10 µM, first compound 0.316 µM
[34] = second compound 10 µM, first compound 1 µM
[35] = second compound 10 µM, first compound 3.16 µM
[36] = second compound 10 µM, first compound 10 µM
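Note: spheroids exposed to compounds for seven days before viability read.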
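Throughout, for viability, T/C: luminescence used as a proxy for viable cell amount; percent viability relative to DMSO vehicle control as 100%.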

Q: How did the IC50 (second compound 0.0316 µM) turn out when `C#Cc1c(F)ccc2cc(O)cc(-c3ncc4c(N5CC6CCC(C5)N6)nc(OCC56CCCN5CC(F)C6)nc4c3F)c12` (centres undefined) + Cc1nc(NC(=O)N2CCCC2C(N)=O)sc1-c1ccnc(C(C)(C)C(F)(F)F)c1 was run?
A: 1670 nM

Q: What about the IC50 (second compound 0.1 µM) of the same compound?
A: 610 nM

Q: What about the IC50 (second compound 0.316 µM) of the same compound?
A: 291 nM

Q: What about the IC50 (second compound 1 µM) of the same compound?
A: 156 nM

Q: What about the IC50 (second compound 3.16 µM) of the same compound?
A: 77.7 nM

Q: And the IC50 (second compound 10 µM)?
A: < 31.6 nM

Q: And the viability, T/C [1]?
A: 80.9%

Q: And the viability, T/C [2]?
A: 77.1%

Q: What about the viability, T/C [3] of the same compound?
A: 66.6%

Q: What about the viability, T/C [4] of the same compound?
A: 53.9%

Q: What about the viability, T/C [5] of the same compound?
A: 45.4%

Q: And the viability, T/C [6]?
A: 40.2%

Q: What about the viability, T/C [7] of the same compound?
A: 94.4%

Q: And the viability, T/C [8]?
A: 78.5%

Q: What about the viability, T/C [9] of the same compound?
A: 55.6%

Q: What about the viability, T/C [10] of the same compound?
A: 45.1%

Q: What about the viability, T/C [11] of the same compound?
A: 39.6%

Q: And the viability, T/C [12]?
A: 33.4%

Q: And the viability, T/C [13]?
A: 72.9%

Q: What about the viability, T/C [14] of the same compound?
A: 55%

Q: And the viability, T/C [15]?
A: 50.8%

Q: And the viability, T/C [16]?
A: 40.1%

Q: And the viability, T/C [17]?
A: 37.8%

Q: What about the viability, T/C [18] of the same compound?
A: 27.8%

Q: What about the viability, T/C [19] of the same compound?
A: 65.5%

Q: What about the viability, T/C [20] of the same compound?
A: 54.8%

Q: What about the viability, T/C [21] of the same compound?
A: 42.6%

Q: And the viability, T/C [22]?
A: 33.2%

Q: What about the viability, T/C [23] of the same compound?
A: 27.8%

Q: What about the viability, T/C [24] of the same compound?
A: 23.4%

Q: And the viability, T/C [25]?
A: 64%

Q: What about the viability, T/C [26] of the same compound?
A: 47.2%

Q: And the viability, T/C [27]?
A: 30.5%

Q: And the viability, T/C [28]?
A: 26.8%

Q: And the viability, T/C [29]?
A: 23.3%

Q: And the viability, T/C [30]?
A: 16.9%

Q: What about the viability, T/C [31] of the same compound?
A: 37.6%

Q: And the viability, T/C [32]?
A: 35.6%

Q: And the viability, T/C [33]?
A: 22.2%

Q: And the viability, T/C [34]?
A: 16.7%

Q: What about the viability, T/C [35] of the same compound?
A: 14.5%

Q: What about the viability, T/C [36] of the same compound?
A: 6.74%

Q: What does the source list for `CC1(C)CCC(Nc2ncc(C(F)(F)F)c(-c3c[nH]c4c(P(C)(C)=O)c(C#N)ccc34)n2)CN1` (centres undefined) + Cc1nc(NC(=O)N2CCCC2C(N)=O)sc1-c1ccnc(C(C)(C)C(F)(F)F)c1?
A: IC50 (second compound 0.0316 µM): 6450 nM; IC50 (second compound 0.1 µM): 6700 nM; IC50 (second compound 0.316 µM): 5830 nM; IC50 (second compound 1 µM): 4920 nM; IC50 (second compound 3.16 µM): 3620 nM; IC50 (second compound 10 µM): < 31.6 nM; viability, T/C [1]: 103%; viability, T/C [2]: 86.8%; viability, T/C [3]: 75.6%; viability, T/C [4]: 90.1%; viability, T/C [5]: 92.2%; viability, T/C [6]: 25.6%; viability, T/C [7]: 89.9%; viability, T/C [8]: 74.1%; viability, T/C [9]: 88.2%; viability, T/C [10]: 85%; viability, T/C [11]: 91.3%; viability, T/C [12]: 30.8%; viability, T/C [13]: 75.5%; viability, T/C [14]: 78%; viability, T/C [15]: 85.8%; viability, T/C [16]: 79%; viability, T/C [17]: 80.2%; viability, T/C [18]: 24%; viability, T/C [19]: 75%; viability, T/C [20]: 70%; viability, T/C [21]: 70.8%; viability, T/C [22]: 69.7%; viability, T/C [23]: 68.1%; viability, T/C [24]: 21.4%; viability, T/C [25]: 62.5%; viability, T/C [26]: 57.9%; viability, T/C [27]: 55.9%; viability, T/C [28]: 58.7%; viability, T/C [29]: 55%; viability, T/C [30]: 13.1%; viability, T/C [31]: 41.9%; viability, T/C [32]: 46%; viability, T/C [33]: 41.7%; viability, T/C [34]: 38.8%; viability, T/C [35]: 36.9%; viability, T/C [36]: 10.2%
